From patent US7842808B2, “Anti-migraine spirocycles” (Bristol-Myers Squibb Company, priority 2002, dated 2010) come the findings set out here.

As usually defined, the EC50 is the concentration needed to bring the measured effect to its halfway point.

Assay [1] has as its system CGRP-induced increase in laser Doppler facial blood flow. The experiment in a line: Non-terminal laser Doppler facial blood flow model in non-human primate. It counts as in vivo, common marmoset (Callithrix jacchus). Particulars: for % Inhibition of CGRP-induced increase in laser Doppler facial blood flow: iv, CGRP 10 μg/kg. From the text: Overview. […] Non-human primates (e.g., marmosets) are the only animals known to have human-like CGRP receptor pharmacology conferred by the presence of the specific amino acid residue (Trp74) in their RAMP1 sequence which is responsible for the phenotype of the human receptor (Mallee et al. J Biol Chem 2002 277:14294). […] Peptide and small-molecule CGRP-receptor antagonists were used to validate the non-human primate model.
Animals. Adult male and female common marmosets (Callithrix jacchus) purchased from Harlan and weighing 350-550 g served as subjects. Other mammals endogenously expressing RAMP1 having Trp 74 or transgenic mammals with humanized RAMP1 having Trp 74 can also be employed in A compound described herein.
Anesthesia & Surgical Preparation. Animals are anesthetized by isoflurane inhalation in an induction chamber (4-5% rapid induction, maintained with 1-2.5%; Solomon et al., 1999). Anesthesia is maintained by delivering a constant supply of air:oxygen (50:50) and isoflurane via face mask, or by intubation and ventilation (with blood gas monitoring). Body temperature is maintained at 38±0.5° C. by placement on an automated temperature controlled surface with rectal probe. A small area of fur (approx. 1.5 cm square) is removed from one or both sides of the face by application of a depilatory cream and/or shaving. Surgical areas are clipped and prepared with betadine. An i.v. line is placed in any accessible vein for the administration of test compounds and CGRP-receptor agonist and, if needed, withdrawal of blood samples (max 2.5 ml, 10%) for blood gas monitoring and content analysis. A solution of 5% dextrose is administered i.v. in order to maintain blood sugar levels. Anesthesia depth is monitored by measuring blood pressure and heart rate using a non-invasive arm cuff method and a pulse oximeter, respectively. Guanethidine 5-10 mg/kg i.v., supplemented with 5 mg/kg i.v. as needed, may be given to stabilize the peak flux in facial blood flow seen with repeated stimulation-induced changes in blood flow (Escott et al., 1999; incorporated by reference herein). Microvascular blood flow is monitored by attaching a self adhesive laser Doppler flow probe to the facial skin.
Compound Administration Test compounds may be administered i.v. (0.01-5 ml/kg), i.m. (0.01-0.5 ml/kg), s.c. (0.01-5 ml/kg) or p.o. (0.1-10 ml/kg) (Diehl et al., 2001; incorporated by reference herein). CGRP-receptor agonists may be delivered i.v. (0.01-5 ml/kg), i.d. (10-100 μl/site) or s.c. (10-100 μl/site).

The target of assay [2] is T1, human CGRP receptor (SK-N-MC cells) (Homo sapiens, UniProt O60894+Q16602).
T1 construct: SK-N-MC cells that endogenously express the human CGRP receptor; endogenous in cells; host or cells: SK-N-MC cells
The experiment in a line: Schild analysis of CGRP stimulated cAMP production. It counts as cell-based. The following applies: Schild plot slope. The method, then:
Functional Antagonism. Antagonism of the compounds of invention was determined by measuring the formation of cyclic AMP (adenosine 3′5′-cyclic monophosphate) in SK-N-MC cells that endogenously express the human CGRP receptor. CGRP receptor complex is coupled with Gs protein and CGRP binding to this complex leads to the cyclic AMP production via Gs—dependent activation of an adenylate cyclase (Juaneda C et al., TiPS, 2000; 21:432-438; incorporated by reference herein). Consequently, CGRP receptor antagonists inhibit CGRP-induced cyclic AMP formation in SK-N-MC cells (Doods H et al., Br J Pharmacol, 2000; 129(3):420-423); incorporated by reference herein). For cyclic AMP measurements SK-N-MC cells were incubated with 0.3 nM CGRP alone or in the presence of various concentrations of the compounds of invention for 30 min at room temperature. Compounds of invention were pre-incubated with SK-N-MC cells for 15 min before the addition of CGRP to allow receptor occupancy (Edvinsson et al., Eur J Pharmacol, 2001, 415:39-44; incorporated by reference herein). Cyclic AMP was extracted using the lysis reagent and its concentration was determined by radioimmunoassay using RPA559 cAMP SPA Direct Screening Assay Kit (Amersham Pharmacia Biotech). IC50 values were calculated using Excel fit.
Schild Analysis. Schild analysis can be used to characterize the nature of antagonism of the compounds of invention. The dose response of CGRP stimulated cAMP production was generated either with CGRP alone, or in the presence of various concentrations of compounds of invention. The antagonist dose is plotted as X against the dose ratio (defined as IC50 of agonist with the presence of the compounds divided by the IC50 of the agonist alone) minus 1 as Y. Linear regression was then performed with both X and Y axis log-transformed. […] Kb is the dissociation constant of the antagonist.
(In general: Cyclic AMP is a second messenger, typically raised through Gs and lowered through Gi signalling.)

Assay [3] relates to human cerebral vessels (CGRP-induced dilation). The experiment in a line: Ex Vivo Human Cerebral Artery Assay, reversal of CGRP-induced relaxation. Particulars: reversal of 1 nM hCGRP-induced relaxation, vessels pre-contracted with 10 mM KCl. In a few lines: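 Autopsy human cerebral artery rings (4-5 mm) in Krebs buffer, 37 °C, pH 7.4, carbogen; primed with 100 mM KCl, pre-contracted with 10 mM KCl and fully dilated with 1 nM hCGRP. Antagonists added cumulatively in half-log steps; tension recorded as % reversal of CGRP relaxation, EC50 by four-parameter logistic fit per vessel.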

T1 sequence (Q16602 23-461): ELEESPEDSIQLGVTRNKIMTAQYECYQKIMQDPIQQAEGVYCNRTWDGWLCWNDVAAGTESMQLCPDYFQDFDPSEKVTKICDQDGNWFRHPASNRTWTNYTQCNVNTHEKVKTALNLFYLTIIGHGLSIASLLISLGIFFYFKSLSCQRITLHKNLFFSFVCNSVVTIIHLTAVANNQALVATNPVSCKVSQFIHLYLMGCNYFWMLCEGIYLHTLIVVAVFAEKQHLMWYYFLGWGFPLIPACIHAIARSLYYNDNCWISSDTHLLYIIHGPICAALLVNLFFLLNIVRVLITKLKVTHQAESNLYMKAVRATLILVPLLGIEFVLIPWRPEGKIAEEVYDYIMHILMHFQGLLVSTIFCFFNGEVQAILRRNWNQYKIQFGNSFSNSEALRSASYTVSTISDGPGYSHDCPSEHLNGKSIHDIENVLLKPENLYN
T1 sequence (O60894 27-148): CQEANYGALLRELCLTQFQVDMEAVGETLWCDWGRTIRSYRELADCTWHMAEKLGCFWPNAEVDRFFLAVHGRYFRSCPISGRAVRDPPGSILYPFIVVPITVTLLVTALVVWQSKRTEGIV

Regarding `O=C(N[C@H](Cc1ccc2[nH]ncc2c1)C(=O)N1CCC(N2CCCCC2)CC1)N1CCC(N2Cc3ccccc3NC2=O)CC1` [Example 2, (R)-4-(2-Oxo-1,4-dihydro-2H-quinazolin-3-yl)-piperidine-1-carboxylic acid[2-[1,4′]bipiperidinyl-1′-yl-1-(1H-indazol-5-ylmethyl)-2-oxo-ethyl]-amide], the “% Inhibition of CGRP-induced increase in laser Doppler facial blood flow” value in assay [1] (0.01 mg/kg) is “W (W≦25%)”; in assay [1] (0.03 mg/kg), “X (25%<X≦50%)”; in assay [1] (0.1 mg/kg), “X (25%<X≦50%)”; in assay [1] (0.3 mg/kg), “Y (50%<Y≦75%)”; in assay [1] (1 mg/kg) it was “Z (Z>75%)”. Also, the “inhibition of CGRP-induced increase in laser Doppler facial blood flow (in words)” value in assay [1] (delivered prior to hαCGRP (pre-treatment)) is “dose-dependently inhibits”. The compound also displayed a slope in assay [2] of 0.94. The EC50 in assay [3] is below 10 nM.
